Where a SMILES comes first, the peptide text is derived from it. Bridges are numbered along the chain shown (N, C = ends). [ ]: non-standard residue; d: D form. The star is where a group is joined. ξ: configuration not given here. Phe(4-COOH) = N[C@@H](Cc1ccc(C(=O)O)cc1)C(=O)O; Bip = N[C@@H](Cc1ccc(-c2ccccc2)cc1)C(=O)O; Phe(3-Me) = Cc1cccc(C[C@H](N)C(=O)O)c1; Val(3-OH) = CC(C)(O)[C@H](N)C(=O)O; 4Pal = N[C@@H](Cc1ccncc1)C(=O)O; Cha = N[C@@H](CC1CCCCC1)C(=O)O; Ile(3ξ) = CCC(C)[C@H](N)C(=O)O; Thr(3ξ) = CC(O)[C@H](N)C(=O)O; Carboxymethyl = O=C(O)C*; Orn = NCCC[C@H](N)C(=O)O; Dab = NCC[C@H](N)C(=O)O
Molecular target: T1, human PD-1 / PD-L1-Ig binding on Jurkat cell line over-expressing human PD-1 (Jurkat-PD-1) (Homo sapiens, UniProt Q15116)
T1 construct: expressed in transfected cells; host or cells: Jurkat
Assay: Jurkat-PD-1 Cell Binding High-Content Screening Assay (CBA)
Format: cell-based
Conditions: Jurkat-PD-1 cells, PE-labeled PD-L1-Ig 20 nM final; read-out: Jurkat HPD1_PDL1 IC50
Method in brief: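 Jurkat-hPD-1 cells in DMEM with 10% fetal calf serum receive test compound and are held at 37° C for 2 h. PE-labeled PD-L1-Ig is added at 20 nM final and left for 1 hour. Cells are then fixed and Hoechst-stained, and binding is measured by imaging.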

T1 sequence (Q15116 25-288): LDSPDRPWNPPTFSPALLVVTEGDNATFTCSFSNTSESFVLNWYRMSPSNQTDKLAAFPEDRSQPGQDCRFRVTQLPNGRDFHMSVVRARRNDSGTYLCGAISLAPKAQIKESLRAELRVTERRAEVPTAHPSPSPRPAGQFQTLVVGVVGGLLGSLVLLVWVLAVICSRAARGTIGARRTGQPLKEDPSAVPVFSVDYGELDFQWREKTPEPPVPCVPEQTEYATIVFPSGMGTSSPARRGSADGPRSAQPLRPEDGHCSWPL

Structure (SMILES) | IC50 [µM]
CCC(C)[C@@H]1NC(=O)[C@H](Cc2ccc(-c3ccccc3)cc2)NC(=O)[C@H](C(C)C)NC(=O)[C@H](Cc2cccc(C)c2)NC(=O)[C@H](CC(=O)O)NC(=O)[C@H](Cc2ccc(C(=O)O)cc2)NC(=O)[C@H](Cc2ccncc2)NC(=O)CSC[C@@H](C(N)=O)NC(=O)[C@H]([C@@H](C)O)NC(=O)[C@H](C(C)C)NC(=O)[C@H](CC2CCCCC2)NC(=O)[C@H](CCN)NC(=O)[C@@H](CC(C)C)NC(=O)[C@H](CCCN)NC1=O (stereo partly drawn) [Compound 2275] ({CH2CO}-[4Pal][Phe(4-COOH)]D[Phe(3-Me)]V[Bip][Ile(3ξ)][Orn][dL][Dab][Cha]VTC-NH2; thioether N-14) | 0.0335
CCC(C)[C@@H]1NC(=O)[C@H](Cc2ccc(-c3ccccc3)cc2)NC(=O)[C@H](C(C)C)NC(=O)[C@H](Cc2cccc(C)c2)NC(=O)[C@H](CC(=O)O)NC(=O)[C@H](Cc2ccc(C(=O)O)cc2)NC(=O)[C@H](Cc2ccncc2)NC(=O)CSC[C@@H](C(N)=O)NC(=O)[C@H](CO)NC(=O)[C@H](C(C)C)NC(=O)[C@H](CC2CCCCC2)NC(=O)[C@H](CCN)NC(=O)[C@@H](CC(C)C)NC(=O)[C@H](CCCN)NC1=O (stereo partly drawn) [Compound 2276] ({CH2CO}-[4Pal][Phe(4-COOH)]D[Phe(3-Me)]V[Bip][Ile(3ξ)][Orn][dL][Dab][Cha]VSC-NH2; thioether N-14) | 0.0266
CCC(C)[C@@H]1NC(=O)[C@H](Cc2ccc(-c3ccccc3)cc2)NC(=O)[C@H](C(C)C)NC(=O)[C@H](Cc2cccc(C)c2)NC(=O)[C@H](CC(=O)O)NC(=O)[C@H](Cc2ccc(C(=O)O)cc2)NC(=O)[C@H](Cc2ccncc2)NC(=O)CSC[C@@H](C(N)=O)NC(=O)[C@H](CCC(=O)O)NC(=O)[C@H](C(C)C)NC(=O)[C@H](CC2CCCCC2)NC(=O)[C@H](CCN)NC(=O)[C@@H](CC(C)C)NC(=O)[C@H](CCCN)NC1=O (stereo partly drawn) [Compound 2277] ({CH2CO}-[4Pal][Phe(4-COOH)]D[Phe(3-Me)]V[Bip][Ile(3ξ)][Orn][dL][Dab][Cha]VEC-NH2; thioether N-14) | 0.0326
CCC(C)[C@@H]1NC(=O)[C@H](Cc2ccc(-c3ccccc3)cc2)NC(=O)[C@H](C(C)C)NC(=O)[C@H](Cc2cccc(C)c2)NC(=O)[C@H](CC(=O)O)NC(=O)[C@H](Cc2ccc(C(=O)O)cc2)NC(=O)[C@H](Cc2ccncc2)NC(=O)CSC[C@@H](C(N)=O)NC(=O)[C@H](CC(=O)O)NC(=O)[C@H](C(C)C)NC(=O)[C@H](CC2CCCCC2)NC(=O)[C@H](CCN)NC(=O)[C@@H](CC(C)C)NC(=O)[C@H](CCCN)NC1=O (stereo partly drawn) [Compound 2278] ({CH2CO}-[4Pal][Phe(4-COOH)]D[Phe(3-Me)]V[Bip][Ile(3ξ)][Orn][dL][Dab][Cha]VDC-NH2; thioether N-14) | 0.0376
CCC(C)[C@@H]1NC(=O)[C@H](Cc2ccc(-c3ccccc3)cc2)NC(=O)[C@H](C(C)C)NC(=O)[C@H](Cc2cccc(C)c2)NC(=O)[C@H](CC(=O)O)NC(=O)[C@H](Cc2ccc(C(=O)O)cc2)NC(=O)[C@H](Cc2ccncc2)NC(=O)CSC[C@@H](C(N)=O)NC(=O)[C@H](CC(N)=O)NC(=O)[C@H](C(C)C)NC(=O)[C@H](CC2CCCCC2)NC(=O)[C@H](CCN)NC(=O)[C@@H](CC(C)C)NC(=O)[C@H](CCCN)NC1=O (stereo partly drawn) [Compound 2279] ({CH2CO}-[4Pal][Phe(4-COOH)]D[Phe(3-Me)]V[Bip][Ile(3ξ)][Orn][dL][Dab][Cha]VNC-NH2; thioether N-14) | 0.0156
CCC(C)[C@@H]1NC(=O)[C@H](Cc2ccc(-c3ccccc3)cc2)NC(=O)[C@H](C(C)C)NC(=O)[C@H](Cc2cccc(C)c2)NC(=O)[C@H](CC(=O)O)NC(=O)[C@H](Cc2ccc(C(=O)O)cc2)NC(=O)[C@H](Cc2ccncc2)NC(=O)CSC[C@@H](C(N)=O)NC(=O)[C@H](CCC(N)=O)NC(=O)[C@H](C(C)C)NC(=O)[C@H](CC2CCCCC2)NC(=O)[C@H](CCN)NC(=O)[C@@H](CC(C)C)NC(=O)[C@H](CCCN)NC1=O (stereo partly drawn) [Compound 2280] ({CH2CO}-[4Pal][Phe(4-COOH)]D[Phe(3-Me)]V[Bip][Ile(3ξ)][Orn][dL][Dab][Cha]VQC-NH2; thioether N-14) | 0.0409
Cc1cccc(C[C@@H]2NC(=O)[C@H](CC(=O)O)NC(=O)[C@H](Cc3ccc(C(=O)O)cc3)NC(=O)[C@H](Cc3ccncc3)NC(=O)CSC[C@@H](C(=O)N[C@@H](CC(N)=O)C(N)=O)NC(=O)[C@H](CO)NC(=O)[C@H](C(C)C)NC(=O)[C@H](CC3CCCCC3)NC(=O)[C@H](CCN)NC(=O)[C@@H](CC(C)C)NC(=O)[C@H](CCCN)NC(=O)[C@H](Cc3ccc(O)cc3)NC(=O)[C@H](Cc3ccc(-c4ccccc4)cc3)NC(=O)[C@H](Cc3ccc(O)cc3)NC2=O)c1 [Compound 2284] ({CH2CO}-[4Pal][Phe(4-COOH)]D[Phe(3-Me)]Y[Bip]Y[Orn][dL][Dab][Cha]VSCN-NH2; thioether N-14) | 0.0041
Cc1cccc(C[C@@H]2NC(=O)[C@H](CC(=O)O)NC(=O)[C@H](Cc3ccc(C(=O)O)cc3)NC(=O)[C@H](Cc3ccncc3)NC(=O)CSC[C@@H](C(=O)N[C@H](CC(N)=O)C(N)=O)NC(=O)[C@H](CO)NC(=O)[C@H](C(C)C)NC(=O)[C@H](CC3CCCCC3)NC(=O)[C@H](CCN)NC(=O)[C@@H](CC(C)C)NC(=O)[C@H](CCCN)NC(=O)[C@H](Cc3ccc(O)cc3)NC(=O)[C@H](Cc3ccc(-c4ccccc4)cc3)NC(=O)[C@H](Cc3ccc(O)cc3)NC2=O)c1 [Compound 2286] ({CH2CO}-[4Pal][Phe(4-COOH)]D[Phe(3-Me)]Y[Bip]Y[Orn][dL][Dab][Cha]VSC[dN]-NH2; thioether N-14) | 0.0089
Cc1cccc(C[C@@H]2NC(=O)[C@H](CC(=O)O)NC(=O)[C@H](Cc3ccc(C(=O)O)cc3)NC(=O)[C@H](Cc3ccncc3)NC(=O)CSC[C@@H](C(=O)N[C@@H](CC(N)=O)C(N)=O)NC(=O)[C@H](C(C)O)NC(=O)[C@H](C(C)C)NC(=O)[C@H](CC3CCCCC3)NC(=O)[C@H](CCN)NC(=O)[C@@H](CC(C)C)NC(=O)[C@H](CCCN)NC(=O)[C@H](Cc3ccc(O)cc3)NC(=O)[C@H](Cc3ccc(-c4ccccc4)cc3)NC(=O)[C@H](C(C)C)NC2=O)c1 (stereo partly drawn) [Compound 2288] ({CH2CO}-[4Pal][Phe(4-COOH)]D[Phe(3-Me)]V[Bip]Y[Orn][dL][Dab][Cha]V[Thr(3ξ)]CN-NH2; thioether N-14) | 0.0146
Cc1cccc(C[C@@H]2NC(=O)[C@H](CC(=O)O)NC(=O)[C@H](Cc3ccc(C(=O)O)cc3)NC(=O)[C@H](Cc3ccncc3)NC(=O)CSC[C@@H](C(=O)N[C@@H](CC(N)=O)C(N)=O)NC(=O)[C@H](CO)NC(=O)[C@H](C(C)C)NC(=O)[C@H](CC3CCCCC3)NC(=O)[C@H](CCN)NC(=O)[C@@H](CC(C)C)NC(=O)[C@H](CCCN)NC(=O)[C@H](Cc3ccc(O)cc3)NC(=O)[C@H](Cc3ccc(-c4ccccc4)cc3)NC(=O)[C@H](C(C)C)NC2=O)c1 [Compound 2289] ({CH2CO}-[4Pal][Phe(4-COOH)]D[Phe(3-Me)]V[Bip]Y[Orn][dL][Dab][Cha]VSCN-NH2; thioether N-14) | 0.0164
Cc1cccc(C[C@@H]2NC(=O)[C@H](CC(=O)O)NC(=O)[C@H](Cc3ccc(C(=O)O)cc3)NC(=O)[C@H](Cc3ccncc3)NC(=O)CSC[C@@H](C(=O)N[C@H](CC(N)=O)C(N)=O)NC(=O)[C@H]([C@@H](C)O)NC(=O)[C@H](C(C)C)NC(=O)[C@H](CC3CCCCC3)NC(=O)[C@H](CCN)NC(=O)[C@@H](CC(C)C)NC(=O)[C@H](CCCN)NC(=O)[C@H](Cc3ccc(O)cc3)NC(=O)[C@H](Cc3ccc(-c4ccccc4)cc3)NC(=O)[C@H](C(C)C)NC2=O)c1 [Compound 2290] ({CH2CO}-[4Pal][Phe(4-COOH)]D[Phe(3-Me)]V[Bip]Y[Orn][dL][Dab][Cha]VTC[dN]-NH2; thioether N-14) | 0.0135
Cc1cccc(C[C@@H]2NC(=O)[C@H](CC(=O)O)NC(=O)[C@H](Cc3ccc(C(=O)O)cc3)NC(=O)[C@H](Cc3ccncc3)NC(=O)CSC[C@@H](C(=O)N[C@H](CC(N)=O)C(N)=O)NC(=O)[C@H](CO)NC(=O)[C@H](C(C)C)NC(=O)[C@H](CC3CCCCC3)NC(=O)[C@H](CCN)NC(=O)[C@@H](CC(C)C)NC(=O)[C@H](CCCN)NC(=O)[C@H](Cc3ccc(O)cc3)NC(=O)[C@H](Cc3ccc(-c4ccccc4)cc3)NC(=O)[C@H](C(C)C)NC2=O)c1 [Compound 2291] ({CH2CO}-[4Pal][Phe(4-COOH)]D[Phe(3-Me)]V[Bip]Y[Orn][dL][Dab][Cha]VSC[dN]-NH2; thioether N-14) | 0.0106
Cc1cccc(C[C@@H]2NC(=O)[C@H](CC(=O)O)NC(=O)[C@H](Cc3ccc(C(=O)O)cc3)NC(=O)[C@H](Cc3ccncc3)NC(=O)CSC[C@@H](C(=O)N[C@@H](CCN)C(N)=O)NC(=O)[C@H]([C@@H](C)O)NC(=O)[C@H](C(C)C)NC(=O)[C@H](CC3CCCCC3)NC(=O)[C@H](CCN)NC(=O)[C@@H](CC(C)C)NC(=O)[C@H](CCCN)NC(=O)[C@H](Cc3ccc(O)cc3)NC(=O)[C@H](Cc3ccc(-c4ccccc4)cc3)NC(=O)[C@H](C(C)C)NC2=O)c1 [Compound 2292] ({CH2CO}-[4Pal][Phe(4-COOH)]D[Phe(3-Me)]V[Bip]Y[Orn][dL][Dab][Cha]VTC[Dab]-NH2; thioether N-14) | 0.0184
Cc1cccc(C[C@@H]2NC(=O)[C@H](CC(=O)O)NC(=O)[C@H](Cc3ccc(C(=O)O)cc3)NC(=O)[C@H](Cc3ccncc3)NC(=O)CSC[C@@H](C(=O)N[C@@H](CCN)C(N)=O)NC(=O)[C@H](CO)NC(=O)[C@H](C(C)(C)O)NC(=O)[C@H](CC3CCCCC3)NC(=O)[C@H](CCN)NC(=O)[C@@H](CC(C)C)NC(=O)[C@H](CCCN)NC(=O)[C@H](Cc3ccc(OCC(=O)O)cc3)NC(=O)[C@H](Cc3ccc(-c4ccccc4)cc3)NC(=O)[C@H](Cc3ccc(OCC(=O)O)cc3)NC2=O)c1 [Compound 2293] ({CH2CO}-[4Pal][Phe(4-COOH)]D[Phe(3-Me)]Y(Carboxymethyl)[Bip]Y(Carboxymethyl)[Orn][dL][Dab][Cha][Val(3-OH)]SC[Dab]-NH2; thioether N-14) | 0.0052

— patent US20250163104A1, “MACROCYCLIC IMMUNOMODULATORS” (priority 2021, published 2025)
